Source: patent US20040052750A1, “Compositions for prevention and alleviation of skin wrinkles” (priority 2000, published 2004)

Assays:
rat skin = assay: Promotion of collagen production in rat skin (hydroxyproline in implanted PVA sponge); type: in vivo, SD rats; conditions: 200 μl every day for 10 days, control = 100%
Protocol: In brief, 5-week male SD rats were grouped with 5 rats per group. The rats were each incised 1 cm in the center of their abdomens and PVA sponges (Unipoint ind.) were inserted therein. After suturing, as for experimental groups, respective active ingredients to be examined were applied to the PVA sponge-embeded regions i n a volume o f 200 μl every day for 10 days. Upon autopsy, the PVA sponge was removed to quantify hydroxyproline. The PVA sponge was added with 4 ml of 6 N HCl, hydrolized at 130° C. for 3 hours and was subjected to complete drying. 50 μl of methanol was added and the solution was incubated at 110° C. until HCl was removed. 1.2 ml of 50% isopropanol was added to dissolve the remaining precipitate. 200 μl of chloramine-T (sodium p-toluensulfochloramide trihydrate) solution was added while stirring, and let stand for 10 min. After adding 1.2 ml of Ehrlich reagent and mixing, the solution was incubated at 50° C. for 90 min. The resulting solution was cooled to room temperature and absorbance at 558 nm was measured. Hydroxyproline standard solutions were prepared by dissolving 1 mg hydroxyproline in 1 ml HCl and diluting it to concentrations of 0, 0.2, 0.4, 0.8, 1 mg each relative to 25 μl of 6 N HCl. The standard solutions were hydrolyzed at 130° C. for 3 hours. The quantified value of hydroxyproline, relative to hydroxyproline value (100%) of the control group which was applied with solvent only, are shown in Table 2.

hairless mice [1] = assay: Alleviating photo-induced wrinkles in hairless mice; type: in vivo; conditions: twice a day for 6 weeks, 10 per group
Protocol: Mice were placed into 21 experimental groups and 3 control groups, with 10 rats per group. […] The experimental protocol is as follows. Hairless mice were radiated using a simulated sunlight at a dose of 2 MED (double Minimal Erythema Dose) 3 days a week for 10 weeks, thereby generating wrinkles. Then, respective active ingredients or the solvent only were applied at a volume of 100 μl each, twice a day for 6 weeks. Degrees of wrinkle reduction were determined. The determination was performed by visually observing the compound-applied region with naked eyes, and the region was photographed. The degrees of alleviation of wrinkles in the compound-treatment groups (experimental groups) were compared with those of the control group and were determined as one of 4 stages, that is, none (Score 0), slight (Score 1), moderate (Score 2) and high (Score 3), and the corresponding mice were counted.

[2] = system: fibroblasts derived from a human; assay: Promoting collagen production in fibroblasts (3H-proline incorporation into collagenase-sensitive protein); type: cell-based; conditions: control = 100%
Protocol: The experimental protocol in detail is as follows.
Human-derived fibroblasts were transferred to a 24 well plate and cultured in a medium containing 10% fetal bovine serum (FBS) for 24 hours, followed by washing twice with phosphate buffered saline. […] After the incubation was terminated, cells from each group were harvested and two fractions of each culture were prepared. One fraction from each culture was treated with collagenase. To all fractions was added trichloroacetic acid to precipitate proteins. The amount of radioactivity incorporated into collagenase-sensitive protein was measured and compared with that of the other fraction which was not treated with collagenase. The difference in radioactivity was attributed to the promoting effect of the compound.

hairless mice [3] = assay: Inhibiting the generation of wrinkles in hairless mice (simulated sunlight); type: in vivo; conditions: 10 per group
Protocol: 6-week hairless mice were placed into 21 experimental groups and 3 control groups, with 10 rats per group. […] The experimental protocol in detail is as follows. Hairless mice were radiated using simulated sunlight at a dose of 2 MED (double Minimal Erythema Dose) 3 days a week for […], thereby generating wrinkles. Respective active ingredients or the solvent only were applied twice every day (specifically, on radiation days, the application was performed at 30 min before and after the radiation), at a volume of 100 μl each for 10 weeks from the first radiation day. Degrees of inhibition of generated wrinkles were determined. The determination was performed by visual observation with naked eyes and photography.

Row | SMILES | Reduction of wrinkles, Score 0 (none) (hairless mice [1]; 10^-3 M) | Reduction of wrinkles, Score 1 (slight) (hairless mice [1]; 10^-3 M) | Reduction of wrinkles, Score 2 (moderate) (hairless mice [1]; 10^-3 M) | Reduction of wrinkles, Score 3 (high) (hairless mice [1]; 10^-3 M) | Reduction of wrinkles, Score 0 (none) (hairless mice [1]; 10^-5 M) | Reduction of wrinkles, Score 1 (slight) (hairless mice [1]; 10^-5 M) | Reduction of wrinkles, Score 2 (moderate) (hairless mice [1]; 10^-5 M) | Reduction of wrinkles, Score 3 (high) (hairless mice [1]; 10^-5 M) | Reduction of wrinkles, Score 0 (none) (hairless mice [1]; 10^-8 M) | Reduction of wrinkles, Score 1 (slight) (hairless mice [1]; 10^-8 M) | Reduction of wrinkles, Score 2 (moderate) (hairless mice [1]; 10^-8 M) | Reduction of wrinkles, Score 3 (high) (hairless mice [1]; 10^-8 M) | Effect of promoting collagen production in fibroblasts (rate of collagen production) ([2]; 10^-5 M) [%] | Effect of promoting collagen production in fibroblasts (rate of collagen production) ([2]; 10^-6 M) [%] | Effect of promoting collagen production in fibroblasts (rate of collagen production) ([2]; 10^-7 M) [%] | Effect of promoting collagen production in fibroblasts (rate of collagen production) ([2]; 10^-8 M) [%] | Inhibition of wrinkles, Score 0 (none) (hairless mice [3]; 10^-3 M) | Inhibition of wrinkles, Score 1 (slight) (hairless mice [3]; 10^-3 M) | Inhibition of wrinkles, Score 2 (moderate) (hairless mice [3]; 10^-3 M) | Inhibition of wrinkles, Score 3 (high) (hairless mice [3]; 10^-3 M) | further results
1 | CCCC(CCC)C(=O)O [Valproic acid] | 0 number of mice | 0 number of mice | 2 number of mice | 8 number of mice | 0 number of mice | 1 number of mice | 2 number of mice | 7 number of mice | 0 number of mice | 1 number of mice | 2 number of mice | 7 number of mice | 370.21 | 332.11 | 283.24 | 201.13 | 0 number of mice | 0 number of mice | 2 number of mice | 8 number of mice | Effect of promoting collagen production in animal skin (hydroxyproline value vs control) (rat skin; 10^-5 M): 178.13%; Effect of promoting collagen production in animal skin (hydroxyproline value vs control) (rat skin; 10^-6 M): 157.72%; Effect of promoting collagen production in animal skin (hydroxyproline value vs control) (rat skin; 10^-7 M): 139.24%; Effect of promoting collagen production in animal skin (hydroxyproline value vs control) (rat skin; 10^-8 M): 128.05%; Inhibition of wrinkles, Score 0 (none) (hairless mice [3]; 10^-5 M): 0 number of mice; Inhibition of wrinkles, Score 1 (slight) (hairless mice [3]; 10^-5 M): 1 number of mice; Inhibition of wrinkles, Score 2 (moderate) (hairless mice [3]; 10^-5 M): 2 number of mice; Inhibition of wrinkles, Score 3 (high) (hairless mice [3]; 10^-5 M): 7 number of mice; Inhibition of wrinkles, Score 0 (none) (hairless mice [3]; 10^-8 M): 0 number of mice; Inhibition of wrinkles, Score 1 (slight) (hairless mice [3]; 10^-8 M): 1 number of mice; Inhibition of wrinkles, Score 2 (moderate) (hairless mice [3]; 10^-8 M): 1 number of mice; Inhibition of wrinkles, Score 3 (high) (hairless mice [3]; 10^-8 M): 8 number of mice
2 | COC(=O)C1=C(C)NC(C)=C(C(=O)OC)C1c1ccccc1[N+](=O)[O-] [Nifedipine] | 0 number of mice | 2 number of mice | 2 number of mice | 6 number of mice | 0 number of mice | 2 number of mice | 2 number of mice | 6 number of mice | 0 number of mice | 2 number of mice | 3 number of mice | 5 number of mice | 358.16 | 330.30 | 292.21 | 204.31 | 0 number of mice | 2 number of mice | 3 number of mice | 5 number of mice | Inhibition of wrinkles, Score 0 (none) (hairless mice [3]; 10^-5 M): 0 number of mice; Inhibition of wrinkles, Score 1 (slight) (hairless mice [3]; 10^-5 M): 2 number of mice; Inhibition of wrinkles, Score 2 (moderate) (hairless mice [3]; 10^-5 M): 3 number of mice; Inhibition of wrinkles, Score 3 (high) (hairless mice [3]; 10^-5 M): 5 number of mice; Inhibition of wrinkles, Score 0 (none) (hairless mice [3]; 10^-8 M): 0 number of mice; Inhibition of wrinkles, Score 1 (slight) (hairless mice [3]; 10^-8 M): 2 number of mice; Inhibition of wrinkles, Score 2 (moderate) (hairless mice [3]; 10^-8 M): 3 number of mice; Inhibition of wrinkles, Score 3 (high) (hairless mice [3]; 10^-8 M): 5 number of mice
